Literature values, collected in US20220002806A1, “BIOMARKER” (ERBER AKTIENGESELLSCHAFT, priority 2018, published 2022).

System: prepuberal gilts
Conditions: prepuberal gilts fed diets containing 1-5 ppm ZEN; Osweiler; cited from earlier work

C[C@H]1CCCC(=O)CCC/C=C/c2cc(O)cc(O)c2C(=O)O1 [ZEN, (2E,11S)-15,17-dihydroxy-11-methyl-12-oxabicyclo[12.4.0]octadeca-1(18),2,14,16-tetraene-7,13-dione]
mammary gland development: triggered
